Results on 32 compounds are retold here after PubChem BioAssay (NCI).

“And” between values parts separate entries of the source, which are not always exact repeats. Equal values may be shown once.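 These data come from cells grown in 96-well plates and exposed to compound for 48 hours at five concentrations. TGI: total growth inhibition.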 The source made the active and inactive calls. Cut-off read from the data, not from the text of the source: active = GI50 below about 0.43 µM; inactive = the rest. Where a SMILES comes first, the peptide text is derived from it. Side-chain parts run from the residue outwards. The star is where a group is joined. Cbz = O=C(OCc1ccccc1)*; Boc = CC(C)(C)OC(=O)*

Test systems include A549 NSCLC; HCT-15 colon; HS 578T breast; NCI-H460 lung; PC-3 prostate; CAKI-1 renal; OVCAR-4 ovarian.
Common to all, as to assay: NCI anticancer screen, dose series, 48 h

On to `CC1(C)CN=CC(C)(OCc2ccccc2)C(=O)NC(C)(C)CN=CC(C)(OCc2ccccc2)C(=O)N1` (stereo unspecified), for which the TGI with A549 NSCLC, in the assay on HCT-15 colon, in the assay with HS 578T breast, in the assay on NCI-H460 lung and in the assay with PC-3 prostate was over 10 µM in each case.
In the case of `CC1=NN(C(=O)Cc2ccccc2)C(=O)/C1=C\c1ccccc1O`, the TGI in the assay on A549 NSCLC, in the assay on CAKI-1 renal, in the assay with HCT-15 colon, in the assay with NCI-H460 lung and with OVCAR-4 ovarian was over 100 µM each time.
As to `C=CCOCn1ccc(N)nc1=O`, the TGI in the assay with A549 NSCLC, with CAKI-1 renal, in the assay on HCT-15 colon, with HS 578T breast and in the assay with PC-3 prostate was over 100 µM throughout.
Turning to `O=C1CCC2(c3ccc(Cl)cc3)Nc3ncncc3N12` (stereo unspecified), the TGI with A549 NSCLC, with HCT-15 colon, with HS 578T breast, in the assay with NCI-H460 lung, with OVCAR-4 ovarian and in the assay on PC-3 prostate was over 10 µM throughout.
`COc1cc2[nH]c(=O)c3cc(C)cc4c(Cl)nc(c1OC)c2c43`: the TGI in the assay on A549 NSCLC, with CAKI-1 renal, with HCT-15 colon, with NCI-H460 lung, with OVCAR-4 ovarian and in the assay on PC-3 prostate was over 100 µM throughout.
In the case of `NC1=Nc2ccccc2Sc2nc3ccccc3n21`, the TGI in the assay with A549 NSCLC, in the assay with HCT-15 colon, in the assay with HS 578T breast, in the assay with NCI-H460 lung, in the assay with OVCAR-4 ovarian and in the assay with PC-3 prostate was over 100 µM in each case.
As to `Cn1c(COC(=O)NC2CCCCC2)c(COC(=O)NC2CCCCC2)c2ccc3cc(C=O)ccc3c21`, the TGI in the assay on A549 NSCLC, with CAKI-1 renal, in the assay on HCT-15 colon, in the assay on HS 578T breast and in the assay on PC-3 prostate was over 100 µM each time.
Regarding `O=Cc1c(Br)[nH]c2ccccc12`, the TGI with A549 NSCLC, with HCT-15 colon, with NCI-H460 lung and with OVCAR-4 ovarian was over 100 µM throughout.
`COc1cc(S(=O)(=O)Nc2ccc(-c3csc(N4C(=O)C(C)SC4c4ccccc4)n3)cc2)ccc1Cl` (stereo unspecified): the TGI with A549 NSCLC, in the assay on CAKI-1 renal, with HCT-15 colon, in the assay with HS 578T breast, in the assay with OVCAR-4 ovarian and in the assay with PC-3 prostate was over 100 µM in each case.
`COc1ccc(N2C(=O)C3c4[nH]c5ccccc5c4C4c5ccccc5CC4C3C2=O)cc1` (stereo unspecified): the TGI with A549 NSCLC, with CAKI-1 renal, in the assay with HCT-15 colon, with NCI-H460 lung, in the assay on OVCAR-4 ovarian and in the assay on PC-3 prostate was over 100 µM throughout.
For `Cc1ccc2c(=O)cc(Cc3csc4ccccc34)[nH]c2n1`, the TGI is over 100 µM in the assay with A549 NSCLC; over 100 µM in the assay on CAKI-1 renal; 55.8 µM in the assay with HCT-15 colon; 46.9 µM with HS 578T breast; 91.4 µM in the assay with OVCAR-4 ovarian; over 100 µM in the assay on PC-3 prostate.
Consider `COc1cc2c(c(OC)c1OC)-c1ccc(SC)c(=O)cc1[C@@H](NC(=O)c1ccc([N+](=O)[O-])cc1)CC2`, for which the TGI was 25 µM and > 100 µM in the assay with A549 NSCLC; 0.0108 µM in the assay with NCI-H460 lung; 25 µM and > 100 µM in the assay on OVCAR-4 ovarian.
Turning to `CCn1c(=O)c2c3ccc(OC)cc3[nH]c2c2ccc(OC)cc21`, the TGI in the assay with A549 NSCLC, in the assay on CAKI-1 renal, in the assay on HCT-15 colon, in the assay on HS 578T breast, in the assay on OVCAR-4 ovarian and in the assay with PC-3 prostate was over 100 µM each time.
For `O=C(CSCC(=O)N/N=C\c1ccccc1F)N/N=C\c1ccccc1F`, the TGI in the assay on A549 NSCLC, in the assay with CAKI-1 renal, in the assay with HCT-15 colon, in the assay with HS 578T breast, in the assay with NCI-H460 lung and with OVCAR-4 ovarian was over 100 µM in each case.
Turning to `COc1ccc(-c2nc(-c3cnccn3)n(Cc3ccccc3)n2)cc1`, the TGI in the assay on A549 NSCLC, in the assay with HCT-15 colon, in the assay with NCI-H460 lung, in the assay on OVCAR-4 ovarian and in the assay with PC-3 prostate was over 100 µM in each case.
With `C[N+](C)(C)CC(=O)N/N=C(/Cc1nc2ccc([N+](=O)[O-])cc2[nH]c1=O)C(=O)Nc1cc(C(F)(F)F)ccc1Cl`, the TGI in the assay with A549 NSCLC, with CAKI-1 renal, in the assay with NCI-H460 lung and with OVCAR-4 ovarian was over 100 µM throughout.
Take `O=NN1C(c2ccccc2)CCCC1c1ccccc1` (stereo unspecified): the TGI in the assay on A549 NSCLC, in the assay with CAKI-1 renal, in the assay on HCT-15 colon, in the assay on NCI-H460 lung and with OVCAR-4 ovarian was over 100 µM in each case.
For `O=C1CC(C(COCc2ccccc2)OCc2ccccc2)CC(=O)N1` (stereo unspecified), the TGI in the assay on A549 NSCLC, in the assay on CAKI-1 renal, with HCT-15 colon, in the assay on HS 578T breast and in the assay on PC-3 prostate was over 100 µM throughout.
In the case of `O=c1[nH]c(=O)n(COCc2ccccc2)c2ccccc12`, the TGI in the assay on A549 NSCLC, with CAKI-1 renal, in the assay with HCT-15 colon, in the assay with NCI-H460 lung, with OVCAR-4 ovarian and in the assay on PC-3 prostate was over 100 µM in each case.
`N#CCc1nc2cc(C(F)(F)F)ccc2s1`: the TGI with CAKI-1 renal, in the assay with HCT-15 colon and with OVCAR-4 ovarian was over 100 µM throughout.
Regarding `O=C(c1ccccc1O)c1cc(-c2ncc3c(=O)c4ccccc4oc3n2)c(-c2ccccc2O)[nH]c1=O`, the TGI was 73.1 µM in the assay on A549 NSCLC; over 33.3 µM in the assay on CAKI-1 renal; 71 µM with HCT-15 colon; 60.9 µM in the assay with NCI-H460 lung; 83.5 µM in the assay with OVCAR-4 ovarian.
With `O=C(NNS(=O)(=O)c1ccccc1)c1csc(NC(=S)NC2CCCCC2)n1`, the TGI with A549 NSCLC was over 100 µM; in the assay with CAKI-1 renal it was 61.4 µM; in the assay on HCT-15 colon, over 100 µM; in the assay with OVCAR-4 ovarian, over 100 µM; in the assay on PC-3 prostate, over 100 µM.
On to `COc1ccc(CCCN2c3ccccc3Sc3ccccc32)cc1`, for which the TGI in the assay with A549 NSCLC, in the assay with CAKI-1 renal, in the assay on HCT-15 colon, in the assay on NCI-H460 lung and with OVCAR-4 ovarian was over 100 µM each time.
For `Cc1ccc(C#CS(=O)(=O)C(F)(F)F)cc1`, the TGI with A549 NSCLC, in the assay with HCT-15 colon, in the assay on NCI-H460 lung and with OVCAR-4 ovarian was over 100 µM each time.
As to `CC(=O)c1[nH]c(Nc2ccc(C)cc2)c(C(=S)Nc2ccccc2)c1N`, the TGI with A549 NSCLC came to 30.7 µM; in the assay on CAKI-1 renal it was 35.6 µM; in the assay with HCT-15 colon, 46.1 µM; in the assay on HS 578T breast it was 52.3 µM; in the assay on NCI-H460 lung, 31.9 µM; in the assay with OVCAR-4 ovarian, 54.9 µM.
Take `COc1ccc(C2=C(Cl)c3cc(OC)c(OC)cc3C2)cc1OC`: the TGI in the assay on A549 NSCLC, with HCT-15 colon and in the assay on OVCAR-4 ovarian was over 100 µM in each case.
Consider `C[N+]1([O-])[C@H]2CC(OC(=O)[C@H](CO)c3ccccc3)C[C@H]1[C@H]1O[C@H]12` (stereo partly specified), for which the TGI in the assay with A549 NSCLC, in the assay with CAKI-1 renal, in the assay on HCT-15 colon, with HS 578T breast, in the assay with OVCAR-4 ovarian and in the assay with PC-3 prostate was over 100 µM each time.
In the case of `CC(C)(C)OC(=O)NC(CCCCNC(=O)CNC(=O)OCc1ccccc1)C(=O)NC(CCCCNC(=O)CNC(=O)OCc1ccccc1)C(=O)NC(CCCCNC(=O)CNC(=O)OCc1ccccc1)C(=O)NC(CCCCNC(=O)CNC(=O)OCc1ccccc1)C(=O)O` (stereo unspecified) (Boc-K([Gly-Cbz])K([Gly-Cbz])K([Gly-Cbz])K([Gly-Cbz])-OH; configuration not given here), the TGI in the assay on A549 NSCLC, with CAKI-1 renal, in the assay with HCT-15 colon, in the assay on NCI-H460 lung and with PC-3 prostate was over 100 µM each time.
On to `COc1ccc([C@H]2c3cc4c(cc3OC(O)(CO)[C@H]2C(=O)O)OCO4)c(OC)c1` (stereo partly specified) (tested in a mixture with another compound), for which the TGI in the assay on A549 NSCLC, in the assay on HCT-15 colon, in the assay on NCI-H460 lung and with OVCAR-4 ovarian was over 100 µM each time.
`O=P(O)(O)CN1CCNCCN(CP(=O)(O)O)CCN(CP(=O)(O)O)CCNCC1` registered a TGI in the assay on CAKI-1 renal of 86100 µM. The outcome in the assay with HCT-15 colon, with HS 578T breast, with OVCAR-4 ovarian and in the assay on PC-3 prostate was inactive.
For `COc1ccc(C2C(C#N)=C(S)N(C3OC(CO)C(O)C(O)C3O)C(C)=C2C(C)=O)cc1` (stereo unspecified), the TGI in the assay with A549 NSCLC, in the assay on HCT-15 colon, with HS 578T breast, in the assay with NCI-H460 lung, with OVCAR-4 ovarian and in the assay with PC-3 prostate was over 100 µM in each case.
Turning to `COc1cc2c(c(OC)c1OC)-c1ccc(SC)c(=O)cc1[C@@H](NCc1cccc([N+](=O)[O-])c1)CC2`, the TGI is over 100 µM in the assay on A549 NSCLC, over 100 µM in the assay with CAKI-1 renal, 12.4 µM in the assay with NCI-H460 lung and over 100 µM in the assay with OVCAR-4 ovarian.
